Read-outs that look alike come from different tables or passages of the source. Blank lines part the entries; values can stand above or below the compound they belong to.
How the values were obtained:
Test in all cases: biochemical
TLK1 = target: T1, TLK1 (Homo sapiens, UniProt Q9UKI8)
T1 sequence (Q9UKI8 1-766): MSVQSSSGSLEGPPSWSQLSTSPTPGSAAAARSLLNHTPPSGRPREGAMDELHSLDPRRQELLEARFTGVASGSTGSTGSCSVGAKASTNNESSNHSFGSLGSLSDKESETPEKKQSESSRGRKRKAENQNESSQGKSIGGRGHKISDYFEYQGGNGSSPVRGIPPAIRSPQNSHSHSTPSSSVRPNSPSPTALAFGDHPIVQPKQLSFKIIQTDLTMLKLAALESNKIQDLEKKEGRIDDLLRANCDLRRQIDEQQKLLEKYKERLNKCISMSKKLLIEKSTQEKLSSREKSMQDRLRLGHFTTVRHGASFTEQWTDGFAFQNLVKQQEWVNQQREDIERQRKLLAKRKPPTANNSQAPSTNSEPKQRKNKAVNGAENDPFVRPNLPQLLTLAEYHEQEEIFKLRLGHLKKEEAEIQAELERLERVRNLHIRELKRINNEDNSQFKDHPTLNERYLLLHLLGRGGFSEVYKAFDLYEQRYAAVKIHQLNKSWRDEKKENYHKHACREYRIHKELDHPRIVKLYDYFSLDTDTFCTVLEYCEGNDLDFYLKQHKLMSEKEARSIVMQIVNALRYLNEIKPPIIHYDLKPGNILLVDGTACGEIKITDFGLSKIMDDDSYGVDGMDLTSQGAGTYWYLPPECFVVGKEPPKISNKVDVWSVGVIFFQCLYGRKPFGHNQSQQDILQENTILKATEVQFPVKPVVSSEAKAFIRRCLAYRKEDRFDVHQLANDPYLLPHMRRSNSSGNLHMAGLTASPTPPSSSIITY

BRPF1 = target: T2, BRPF1 (Homo sapiens, UniProt P55201)
T2 sequence (P55201 1-1214): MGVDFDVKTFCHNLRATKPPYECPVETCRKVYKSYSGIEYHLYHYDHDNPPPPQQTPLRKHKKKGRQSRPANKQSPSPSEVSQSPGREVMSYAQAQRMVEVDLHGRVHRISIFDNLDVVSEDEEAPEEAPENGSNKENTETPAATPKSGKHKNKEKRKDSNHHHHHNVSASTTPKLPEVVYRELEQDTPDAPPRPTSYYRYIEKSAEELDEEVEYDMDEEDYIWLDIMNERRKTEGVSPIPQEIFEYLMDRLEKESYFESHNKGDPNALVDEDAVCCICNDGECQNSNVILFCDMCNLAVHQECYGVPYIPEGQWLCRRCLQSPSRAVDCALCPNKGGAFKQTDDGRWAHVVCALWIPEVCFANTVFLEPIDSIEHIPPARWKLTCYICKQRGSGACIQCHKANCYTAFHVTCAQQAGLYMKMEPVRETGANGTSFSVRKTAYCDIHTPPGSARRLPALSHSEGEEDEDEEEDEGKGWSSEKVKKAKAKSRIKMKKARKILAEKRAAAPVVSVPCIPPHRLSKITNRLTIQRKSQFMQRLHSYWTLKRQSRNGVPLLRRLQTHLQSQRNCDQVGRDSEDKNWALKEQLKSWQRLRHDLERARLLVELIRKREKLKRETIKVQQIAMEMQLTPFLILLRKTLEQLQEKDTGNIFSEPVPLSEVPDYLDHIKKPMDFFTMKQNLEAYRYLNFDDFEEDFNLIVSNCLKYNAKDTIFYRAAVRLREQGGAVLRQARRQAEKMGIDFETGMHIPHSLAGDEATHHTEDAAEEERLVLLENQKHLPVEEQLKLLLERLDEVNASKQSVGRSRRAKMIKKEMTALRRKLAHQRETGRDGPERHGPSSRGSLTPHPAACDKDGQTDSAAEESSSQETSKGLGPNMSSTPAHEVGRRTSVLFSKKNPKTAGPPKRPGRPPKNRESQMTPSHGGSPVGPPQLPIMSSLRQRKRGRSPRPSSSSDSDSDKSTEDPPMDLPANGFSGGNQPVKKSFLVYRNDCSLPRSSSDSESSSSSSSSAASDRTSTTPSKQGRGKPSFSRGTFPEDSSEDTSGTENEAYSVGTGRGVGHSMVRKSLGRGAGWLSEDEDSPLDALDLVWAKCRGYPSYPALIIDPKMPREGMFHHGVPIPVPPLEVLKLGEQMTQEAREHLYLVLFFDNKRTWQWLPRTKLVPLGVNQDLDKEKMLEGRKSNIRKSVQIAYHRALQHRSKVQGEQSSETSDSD

NEK7 = NEK7 (Homo sapiens, UniProt Q8TDX7)
STLK3 = STLK3 (Homo sapiens, UniProt Q9UEW8)
CDKL1 = CDKL1 (Homo sapiens, UniProt Q00532)
SRPK1 = SRPK1 (Homo sapiens, UniProt Q96SB4)
CaMK2d = CaMK2d (Homo sapiens, UniProt Q13557)
ABL1 = ABL1 (Homo sapiens, UniProt P00519)
CK2a2 = CK2a2 (Homo sapiens, UniProt P19784)
PCTAIRE1 = PCTAIRE1 (Homo sapiens, UniProt Q00536)
Sequence of PCTAIRE1 (Q00536 whole entry): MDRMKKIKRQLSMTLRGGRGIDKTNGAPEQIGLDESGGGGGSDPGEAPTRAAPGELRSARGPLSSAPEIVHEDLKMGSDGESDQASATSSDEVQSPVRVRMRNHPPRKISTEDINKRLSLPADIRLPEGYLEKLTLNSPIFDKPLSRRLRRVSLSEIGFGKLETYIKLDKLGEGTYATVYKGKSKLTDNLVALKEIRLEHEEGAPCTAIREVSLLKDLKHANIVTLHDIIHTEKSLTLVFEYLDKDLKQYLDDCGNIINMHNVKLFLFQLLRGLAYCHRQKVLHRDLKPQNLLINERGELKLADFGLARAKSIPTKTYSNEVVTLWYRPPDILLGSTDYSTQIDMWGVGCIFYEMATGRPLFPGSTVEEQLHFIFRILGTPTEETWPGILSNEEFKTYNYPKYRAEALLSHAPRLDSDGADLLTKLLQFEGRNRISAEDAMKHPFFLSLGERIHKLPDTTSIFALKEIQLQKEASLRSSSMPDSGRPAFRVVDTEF

Sequence of SRPK1 (Q96SB4 whole entry): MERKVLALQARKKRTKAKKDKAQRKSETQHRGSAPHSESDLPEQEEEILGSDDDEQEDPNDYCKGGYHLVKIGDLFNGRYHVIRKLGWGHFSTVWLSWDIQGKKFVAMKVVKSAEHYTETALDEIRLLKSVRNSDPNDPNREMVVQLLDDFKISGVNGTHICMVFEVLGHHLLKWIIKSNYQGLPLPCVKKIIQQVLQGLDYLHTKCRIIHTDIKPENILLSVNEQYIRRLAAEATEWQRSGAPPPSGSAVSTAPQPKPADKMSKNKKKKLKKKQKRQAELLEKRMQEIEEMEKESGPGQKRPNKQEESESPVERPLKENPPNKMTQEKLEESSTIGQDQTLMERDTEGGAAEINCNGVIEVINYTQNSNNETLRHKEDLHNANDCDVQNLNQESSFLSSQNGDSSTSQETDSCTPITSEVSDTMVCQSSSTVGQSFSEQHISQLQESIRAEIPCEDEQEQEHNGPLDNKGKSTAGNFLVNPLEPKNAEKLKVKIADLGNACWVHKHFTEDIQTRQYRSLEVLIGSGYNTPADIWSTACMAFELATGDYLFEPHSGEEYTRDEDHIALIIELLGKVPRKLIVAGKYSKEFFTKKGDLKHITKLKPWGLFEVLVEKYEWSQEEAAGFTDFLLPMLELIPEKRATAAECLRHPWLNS
Sequence of CDKL1 (Q00532 whole entry): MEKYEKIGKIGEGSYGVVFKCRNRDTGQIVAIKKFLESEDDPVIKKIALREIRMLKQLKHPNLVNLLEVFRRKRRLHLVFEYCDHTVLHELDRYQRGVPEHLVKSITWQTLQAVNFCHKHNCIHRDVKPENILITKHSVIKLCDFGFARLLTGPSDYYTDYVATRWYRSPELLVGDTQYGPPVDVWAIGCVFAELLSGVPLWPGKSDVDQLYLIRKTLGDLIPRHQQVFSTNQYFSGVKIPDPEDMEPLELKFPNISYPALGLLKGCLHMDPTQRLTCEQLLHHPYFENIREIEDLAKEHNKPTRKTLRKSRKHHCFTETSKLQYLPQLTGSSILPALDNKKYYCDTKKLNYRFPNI
Sequence of NEK7 (Q8TDX7 whole entry): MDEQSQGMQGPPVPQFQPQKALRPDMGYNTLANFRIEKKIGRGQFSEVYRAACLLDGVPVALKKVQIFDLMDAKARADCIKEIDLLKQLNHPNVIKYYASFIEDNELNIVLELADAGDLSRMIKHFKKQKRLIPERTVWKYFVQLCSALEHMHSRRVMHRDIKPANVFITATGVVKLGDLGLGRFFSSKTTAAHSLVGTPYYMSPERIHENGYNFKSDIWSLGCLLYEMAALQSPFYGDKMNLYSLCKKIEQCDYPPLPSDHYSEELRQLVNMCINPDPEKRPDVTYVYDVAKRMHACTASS
Sequence of CaMK2d (Q13557 whole entry): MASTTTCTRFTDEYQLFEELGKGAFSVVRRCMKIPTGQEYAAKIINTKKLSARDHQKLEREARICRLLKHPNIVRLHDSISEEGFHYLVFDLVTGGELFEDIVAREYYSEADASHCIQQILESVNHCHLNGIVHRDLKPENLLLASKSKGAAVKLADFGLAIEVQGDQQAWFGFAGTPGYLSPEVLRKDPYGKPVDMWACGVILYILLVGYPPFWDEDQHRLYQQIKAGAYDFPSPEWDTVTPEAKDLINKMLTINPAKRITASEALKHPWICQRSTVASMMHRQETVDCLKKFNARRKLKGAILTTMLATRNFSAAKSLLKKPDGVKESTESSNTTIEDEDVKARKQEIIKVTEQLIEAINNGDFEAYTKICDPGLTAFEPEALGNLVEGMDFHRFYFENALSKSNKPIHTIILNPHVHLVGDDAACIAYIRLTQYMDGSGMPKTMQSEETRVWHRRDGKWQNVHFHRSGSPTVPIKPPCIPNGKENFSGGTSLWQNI
Sequence of CK2a2 (P19784 whole entry): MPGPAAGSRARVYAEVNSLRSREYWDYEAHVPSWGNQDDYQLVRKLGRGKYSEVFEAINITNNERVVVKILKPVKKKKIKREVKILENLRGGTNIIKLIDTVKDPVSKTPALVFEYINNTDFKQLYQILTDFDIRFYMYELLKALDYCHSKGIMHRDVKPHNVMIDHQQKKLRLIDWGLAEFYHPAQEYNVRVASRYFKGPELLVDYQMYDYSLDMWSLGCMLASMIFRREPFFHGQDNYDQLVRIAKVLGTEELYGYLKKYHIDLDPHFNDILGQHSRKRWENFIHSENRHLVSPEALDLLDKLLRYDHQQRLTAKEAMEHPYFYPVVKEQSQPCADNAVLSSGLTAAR
Sequence of ABL1 (P00519 whole entry): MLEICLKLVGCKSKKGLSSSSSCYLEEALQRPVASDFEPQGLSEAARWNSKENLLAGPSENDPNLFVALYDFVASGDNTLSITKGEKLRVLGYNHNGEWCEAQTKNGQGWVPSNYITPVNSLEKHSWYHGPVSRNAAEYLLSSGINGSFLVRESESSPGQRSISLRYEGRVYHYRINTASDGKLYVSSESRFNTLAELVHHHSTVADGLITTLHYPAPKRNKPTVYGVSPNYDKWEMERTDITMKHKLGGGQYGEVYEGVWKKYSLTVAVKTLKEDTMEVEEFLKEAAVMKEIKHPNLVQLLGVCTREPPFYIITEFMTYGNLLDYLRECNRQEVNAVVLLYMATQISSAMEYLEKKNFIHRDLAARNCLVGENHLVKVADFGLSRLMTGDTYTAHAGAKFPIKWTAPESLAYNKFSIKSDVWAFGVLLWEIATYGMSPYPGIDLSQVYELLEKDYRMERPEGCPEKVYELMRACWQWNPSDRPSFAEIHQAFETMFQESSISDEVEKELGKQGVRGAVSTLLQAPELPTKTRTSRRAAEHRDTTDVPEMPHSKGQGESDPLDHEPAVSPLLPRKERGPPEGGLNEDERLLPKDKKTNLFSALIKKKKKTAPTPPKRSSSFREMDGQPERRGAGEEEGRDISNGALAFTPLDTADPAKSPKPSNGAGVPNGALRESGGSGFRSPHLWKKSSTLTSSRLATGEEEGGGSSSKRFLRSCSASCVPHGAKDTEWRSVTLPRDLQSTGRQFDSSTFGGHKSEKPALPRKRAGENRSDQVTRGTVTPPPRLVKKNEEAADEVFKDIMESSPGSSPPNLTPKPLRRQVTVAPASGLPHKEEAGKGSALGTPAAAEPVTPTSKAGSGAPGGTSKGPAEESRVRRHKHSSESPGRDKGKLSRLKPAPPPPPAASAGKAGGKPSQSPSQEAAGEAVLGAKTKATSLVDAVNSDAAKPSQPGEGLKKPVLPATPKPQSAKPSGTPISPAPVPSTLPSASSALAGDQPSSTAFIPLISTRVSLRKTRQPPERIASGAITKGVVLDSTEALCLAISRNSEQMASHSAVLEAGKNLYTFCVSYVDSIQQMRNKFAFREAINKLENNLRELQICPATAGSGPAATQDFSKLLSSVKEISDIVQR

ΔTm at 10 µM (TLK1; read-out: dTm 6): 0 °C | ΔTm at 10 µM (BRPF1; read-out: dTm 6): 0.3 °C | ΔTm at 10 µM (NEK7; read-out: dTm 6): -1 °C | ΔTm at 10 µM (STLK3; read-out: dTm 6): 0.2 °C | ΔTm at 10 µM (CDKL1; read-out: dTm 6): 0 °C | ΔTm at 10 µM (SRPK1; read-out: dTm 6): 0.1 °C | ΔTm at 10 µM (CaMK2d; read-out: dTm 6): 0 °C | ΔTm at 10 µM (ABL1; read-out: dTm 6): 4.5 °C | ΔTm at 10 µM (CK2a2; read-out: dTm 6): -0.1 °C | ΔTm at 10 µM (PCTAIRE1; read-out: dTm 6): 1.1 °C
SMILES: CNc1ncc2cc(-c3cc(Br)ccc3Cl)c(=O)n(CCCCN)c2n1 [compound 6, 8-(4-Aminobutyl)-6-(5-bromo-2-chlorophenyl)-2-(methylamino)pyrido[2,3-d]pyrimidin-7(8H)-one]

ΔTm at 10 µM (TLK1; read-out: dTm 7): 0.9 °C | ΔTm at 10 µM (BRPF1; read-out: dTm 7): -0.7 °C | ΔTm at 10 µM (NEK7; read-out: dTm 7): -0.2 °C | ΔTm at 10 µM (STLK3; read-out: dTm 7): 0 °C | ΔTm at 10 µM (CDKL1; read-out: dTm 7): -0.1 °C | ΔTm at 10 µM (SRPK1; read-out: dTm 7): 0.1 °C | ΔTm at 10 µM (CaMK2d; read-out: dTm 7): 0.4 °C | ΔTm at 10 µM (ABL1; read-out: dTm 7): 4.1 °C | ΔTm at 10 µM (CK2a2; read-out: dTm 7): 0.1 °C | ΔTm at 10 µM (PCTAIRE1; read-out: dTm 7): 0.1 °C
SMILES: CNc1ncc2cc(-c3cc(Br)ccc3Cl)c(=O)n(C[C@H]3OC[C@H](N)CO3)c2n1 [compound 7, 8-(((2r,5r)-5-Amino-1,3-dioxan-2-yl)methyl)-6-(5-bromo-2-chlorophenyl)-2-(methylamino)pyrido[2,3-d]pyrimidin-7(8H)-one]

ΔTm at 10 µM (TLK1; read-out: dTm MR22 (5)): -1.3 °C | ΔTm at 10 µM (BRPF1; read-out: dTm MR22 (5)): -1 °C | ΔTm at 10 µM (NEK7; read-out: dTm MR22 (5)): -1.3 °C | ΔTm at 10 µM (STLK3; read-out: dTm MR22 (5)): 2.1 °C | ΔTm at 10 µM (CDKL1; read-out: dTm MR22 (5)): 0.5 °C | ΔTm at 10 µM (SRPK1; read-out: dTm MR22 (5)): 0.3 °C | ΔTm at 10 µM (CaMK2d; read-out: dTm MR22 (5)): -0.6 °C | ΔTm at 10 µM (ABL1; read-out: dTm MR22 (5)): 6.9 °C | ΔTm at 10 µM (CK2a2; read-out: dTm MR22 (5)): -1 °C | ΔTm at 10 µM (PCTAIRE1; read-out: dTm MR22 (5)): 0.3 °C
SMILES: CNc1ncc2cc(-c3cc(F)ccc3F)c(=O)n(CCCCN)c2n1 [compound 5, 8-(4-Aminobutyl)-6-(2,5-difluorophenyl)-2-(methylamino)pyrido[2,3-d]pyrimidin-7(8H)-one]

dTm G-5555 (2) (TLK1; 10 µM, binder): -0.3 °C | dTm G-5555 (2) (BRPF1; 10 µM, binder): 0.8 °C | dTm G-5555 (2) (NEK7; 10 µM, binder): 0.1 °C | dTm G-5555 (2) (STLK3; 10 µM, binder): 0.6 °C | dTm G-5555 (2) (CDKL1; 10 µM, binder): -0.1 °C | dTm G-5555 (2) (SRPK1; 10 µM, binder): -0.4 °C | dTm G-5555 (2) (CaMK2d; 10 µM, binder): -0.1 °C | dTm G-5555 (2) (ABL1; 10 µM, binder): 5.1 °C | dTm G-5555 (2) (CK2a2; 10 µM, binder): -0.6 °C | dTm G-5555 (2) (PCTAIRE1; 10 µM, binder): 1.3 °C
SMILES: CNc1ncc2cc(-c3ccc(-c4cccc(C)n4)cc3Cl)c(=O)n(CC3OCC(N)CO3)c2n1 (centres unmarked) [compound 2, G-5555]

ΔTm at 10 µM (TLK1; read-out: dTm MR21 (4)): 0.5 °C | ΔTm at 10 µM (BRPF1; read-out: dTm MR21 (4)): 0.7 °C | ΔTm at 10 µM (NEK7; read-out: dTm MR21 (4)): 0.1 °C | ΔTm at 10 µM (STLK3; read-out: dTm MR21 (4)): -1.1 °C | ΔTm at 10 µM (CDKL1; read-out: dTm MR21 (4)): 0.5 °C | ΔTm at 10 µM (SRPK1; read-out: dTm MR21 (4)): 0.6 °C | ΔTm at 10 µM (CaMK2d; read-out: dTm MR21 (4)): 0 °C | ΔTm at 10 µM (ABL1; read-out: dTm MR21 (4)): 9.2 °C | ΔTm at 10 µM (CK2a2; read-out: dTm MR21 (4)): -0.3 °C | ΔTm at 10 µM (PCTAIRE1; read-out: dTm MR21 (4)): 1.8 °C
SMILES: CNc1ncc2cc(-c3ccccc3Cl)c(=O)n(CCCCN)c2n1 [compound 4, 8-(4-Aminobutyl)-6-(2-chlorophenyl)-2-(methylamino)pyrido[2,3-d]pyrimidin-7(8H)-one]
